{"source": "patent US20180188258A1", "about": "“MARKER FOR HETEROGENEITY OF CANCER TISSUE, AND USE THEREOF” (Keio University, priority 2015, published 2018)", "system": "cancer tissue of the Mix mouse (MDA-MB-231 + HCC1937 cells) and of the 231 mouse (MDA-MB-231 cells)", "test": "Study on therapeutic effects by anticancer drug in tumor-bearing mice (tumor volume over time)", "type": "in vivo", "conditions": "Paclitaxel 3 mg/kg intraperitoneally once a week; Mix mouse compared with 231 mouse; BALB/c-nu; control physiological saline", "source_text": "The MDA-MB-231 cell line and the HCC1937 cell line were mixed so that the cell number of the HCC1937 cell line was larger than the cell number of the MDA-MB-231 cell line, preferably the cell number of HCC1937 cell line:cell number of MDA-231 cell line was a ratio of 2:1 or more, for example, 9:1. Then, the cell mixture was transplanted into the fourth mammary gland adipose tissue of an immunodeficient mouse (4 weeks old, female, BALB/c-nu) to thereby construct a tumor-bearing mouse (hereinafter, sometimes referred to as “Mix mouse”). Only the MDA-MB-231 cell line and only the HCC1937 cell line were respectively transplanted into the fourth mammary gland adipose tissue of an immunodeficient mouse (4 weeks old, female, BALB/c-nu) to thereby construct tumor-bearing mice (hereinafter, sometimes referred to as “231 mouse” and “1937 mouse”, respectively) as controls.\nPaclitaxel (3 mg/kg) was administered intraperitoneally once a week to Mix mouse and 231 mouse constructed in the same manner as in Experimental Example 2, the tumor diameter was measured with time, and temporal changes in tumor volume were observed (n=5 in each case). As controls, temporal changes in tumor volume were also observed for the groups (control groups) in which physiological saline was administered intraperitoneally in place of paclitaxel (n=5 in each case). […]", "data": [{"compound": "CC(=O)O[C@H]1C(=O)[C@@]2(C)[C@H]([C@H](OC(=O)c3ccccc3)[C@]3(O)C[C@H](OC(=O)[C@H](O)[C@@H](NC(=O)c4ccccc4)c4ccccc4)C(C)=C1C3(C)C)[C@]1(OC(C)=O)CO[C@@H]1C[C@@H]2O", "note": "[Paclitaxel]", "values": [{"measurement": "temporal changes in tumor volume (resistance of the cancer tissue to paclitaxel)", "result": "the cancer tissue of the Mix mouse has higher resistance to paclitaxel than the cancer tissue of the 231 mouse"}]}]}
